Measurements: patent US6608082B1, “Treatment of erectile dysfunction using isoquinoline compound melanocortin receptor ligands” (Lion Bioscience AG, priority 1998, dated 2003)

Tests used:
MCR-1 = biological target: T1, MCR-1 (Homo sapiens, UniProt Q01726); assay: Melanocortin receptor binding assay, competition with 125I-HP 467, HEK 293 cells expressing hMCR-1; details: for IC50: competition with 125I-HP 467, HEK 293 cells expressing MCR-1, read-out: MC-1 IC50
T1 construct: expressed in transfected cells; host or cells: HEK 293
Summary of the method: (§1)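 Intact-cell competition binding, 2.5 hr at 37 °C, in PBS/10% calf serum/1 mM CaCl2; hMCR-4 cells at 4×10^3 per tube, hMCR-1 cells at 2×10^4 per tube. Filtration on BSA/CaCl2-soaked GF/B, cold 50 mM Tris pH 7.4 washes, scintillation count.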

MCR-4 = biological target: T2, MCR-4 (Homo sapiens, UniProt P32245); assay: Melanocortin receptor binding assay, competition with 125I-HP 467, HEK 293 cells expressing hMCR-4; details: competition with 125I-HP 467, HEK 293 cells expressing MCR-4; read-out: MC-4 IC50
T2 construct: expressed in transfected cells; host or cells: HEK 293
Summary of the method: as §1

T1 sequence (Q01726 whole entry): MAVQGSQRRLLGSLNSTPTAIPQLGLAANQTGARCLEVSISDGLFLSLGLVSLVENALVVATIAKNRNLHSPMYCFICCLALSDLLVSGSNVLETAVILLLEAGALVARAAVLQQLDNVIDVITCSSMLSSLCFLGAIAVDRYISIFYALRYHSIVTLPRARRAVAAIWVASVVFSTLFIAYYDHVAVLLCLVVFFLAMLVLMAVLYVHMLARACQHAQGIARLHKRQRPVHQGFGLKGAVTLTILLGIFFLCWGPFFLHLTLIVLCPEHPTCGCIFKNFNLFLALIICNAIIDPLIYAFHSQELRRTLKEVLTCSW
T2 sequence (P32245 whole entry): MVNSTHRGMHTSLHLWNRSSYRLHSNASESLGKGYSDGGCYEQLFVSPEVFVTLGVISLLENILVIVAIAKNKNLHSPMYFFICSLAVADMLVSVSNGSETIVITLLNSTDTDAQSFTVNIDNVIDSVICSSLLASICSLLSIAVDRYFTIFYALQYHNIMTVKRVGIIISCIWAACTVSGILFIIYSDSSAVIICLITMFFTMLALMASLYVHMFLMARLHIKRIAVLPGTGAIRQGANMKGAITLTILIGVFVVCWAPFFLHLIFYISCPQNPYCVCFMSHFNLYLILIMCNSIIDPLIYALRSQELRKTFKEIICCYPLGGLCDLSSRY

SMILES	IC50 (MCR-1) [nM]	IC50 (MCR-4) [nM]	effectiveness as MC receptor ligand (MCR-1; binding to MC receptors, Table 1)
CCCCNc1ccc(C2C(CN)c3ccccc3CN2CCCC(CN)NCCc2ccccc2)cc1 (stereo not drawn) [TRG 2409-221]	80	850	–
NCC(N)CCCCN1Cc2ccccc2C(CNCCc2ccccc2)C1c1ccc(-c2ccccc2)cc1 (stereo not drawn) [TRG 2411-1]	600	1220	–
CCCCNC(CN)CCCCN1Cc2ccccc2C(CNC2CCCCC2)C1c1ccc(-c2ccccc2)cc1 (stereo not drawn) [TRG 2411-20]	610	770	–
NCC(CCCCN1Cc2ccccc2C(CNC2CCCCC2)C1c1ccc(-c2ccccc2)cc1)NCC1CCCCC1 (stereo not drawn) [TRG 2411-21]	270	1010	–
NCC(CCCCN1Cc2ccccc2C(CNC2CCCCC2)C1c1ccc(-c2ccccc2)cc1)NCc1ccccc1 (stereo not drawn) [TRG 2411-22]	420	1730	–
CNCCNC(CN)CCCCN1Cc2ccccc2C(CN)C1c1ccc(-c2ccccc2)cc1 (stereo not drawn) [TRG 2411-26]	90	6170	particularly effective MC receptor ligands
CNC(CNC(CN)CCCCN1Cc2ccccc2C(CN)C1c1ccc(-c2ccccc2)cc1)Cc1ccccc1 (stereo not drawn) [TRG 2411-30]	300	1330	–
CCCCNC(CN)CCCCN1Cc2ccccc2C(CN)C1c1ccc(-c2ccccc2)cc1 (stereo not drawn) [TRG 2411-33]	390	1730	–
CCNc1ccc(C2C(CNCCc3ccccc3)c3ccccc3CN2CCCCC(CN)NCc2ccccc2)cc1 (stereo not drawn) [TRG 2411-43]	190	1030	–
CCNc1ccc(C2C(CNCCc3ccccc3)c3ccccc3CN2CCCCC(CN)NCc2ccc(OC)cc2)cc1 (stereo not drawn) [TRG 2411-45]	120	840	–
CCNc1ccc(C2C(CNC3CCCCC3)c3ccccc3CN2CCCCC(CN)NCCc2ccc(Br)cc2)cc1 (stereo not drawn) [TRG 2411-52]	550	860	–
CCNc1ccc(C2C(CNC3CCCCC3)c3ccccc3CN2CCCCC(CN)NCc2ccccc2)cc1 (stereo not drawn) [TRG 2411-54]	130	1790	–
CCNc1ccc(C2C(CNC3CCCCC3)c3ccccc3CN2CCCCC(CN)NCc2ccc(Cl)cc2)cc1 (stereo not drawn) [TRG 2411-55]	90	2050	–
CCNc1ccc(C2C(CNC3CCCCC3)c3ccccc3CN2CCCC[C@@H](CN)NCCC2CCCCC2)cc1 (stereo partly drawn) [TRG 2411-58]	220	1110	–

Now from value to compound, other results behind:

IC50 (MCR-1) [nM]	IC50 (MCR-4) [nM]	SMILES	effectiveness as MC receptor ligand (MCR-1; binding to MC receptors, Table 1)
4770	19600	CNC(CN)CCCCN1Cc2ccccc2C(CNC2CCCCC2)C1c1ccc(NCCc2ccc(Cl)c(Cl)c2)cc1 (stereo not drawn) [TRG 2409-23]	–
3950	12200	CNC(CN)CCCCN1Cc2ccccc2C(CNC2CCCCC2)C1c1ccc(NCc2ccc(Cl)cc2)cc1 (stereo not drawn) [TRG 2409-24]	–
100	630	CCCCNc1ccc(C2C(CN)c3ccccc3CN2CCCC(CN)NCCc2ccc(OC)cc2)cc1 (stereo not drawn) [TRG 2409-223]	–
120	1320	CCCCNc1ccc(C2C(CN)c3ccccc3CN2CCCC(CN)NCc2ccccc2)cc1 (stereo not drawn) [TRG 2409-224]	–
120	1120	CCCCNc1ccc(C2C(CN)c3ccccc3CN2CCCC(CN)NCc2ccc(Cl)cc2)cc1 (stereo not drawn) [TRG 2409-225]	–
130	1270	NCC(CCCCN1Cc2ccccc2C(CNCCc2ccccc2)C1c1ccc(-c2ccccc2)cc1)N1CCCC1 (stereo not drawn) [TRG 2411-9]	–
830	1800	CCCCNC(CN)CCCCN1Cc2ccccc2C(CNCCc2ccccc2)C1c1ccc(-c2ccccc2)cc1 (stereo not drawn) [TRG 2411-11]	–
300	1420	NCC(CCCCN1Cc2ccccc2C(CN)C1c1ccc(-c2ccccc2)cc1)NCCO (stereo not drawn) [TRG 2411-29]	–
90	1330	CCCCNC(CN)CCCCN1Cc2ccccc2C(CNCCc2ccccc2)C1c1ccc(NCC)cc1 (stereo not drawn) [TRG 2411-38]	–
190	1000	CCNc1ccc(C2C(CNCCc3ccccc3)c3ccccc3CN2CCCCC(CN)NCCc2ccccc2)cc1 (stereo not drawn) [TRG 2411-40]	–
320	1560	CCNc1ccc(C2C(CNCCc3ccccc3)c3ccccc3CN2CCCC[C@@H](CN)NCCc2ccc(OC)cc2)cc1 (stereo partly drawn) [TRG 2411-42]	–
890	1330	CCNc1ccc(C2C(CNCCc3ccccc3)c3ccccc3CN2CCCCC(CN)NCCc2ccc3ccccc3c2)cc1 (stereo not drawn) [TRG 2411-46]	–
280	1650	CCNc1ccc(C2C(CNC3CCCCC3)c3ccccc3CN2CCCCC(CN)NCCc2ccc(OC)cc2)cc1 (stereo not drawn) [TRG 2411-53]	–
920	1190	CCNc1ccc(C2C(CNC3CCCCC3)c3ccccc3CN2CCCCC(CN)NCCc2ccc3ccccc3c2)cc1 (stereo not drawn) [TRG 2411-57]	–
240	1820	CCNc1ccc(C2C(CN)c3ccccc3CN2CCCCC(CN)NCCc2ccccc2)cc1 (stereo not drawn) [TRG 2411-63]	–
110	2240	CCCCNc1ccc(C2C(CNCCc3ccccc3)c3ccccc3CN2CCCCC(CN)NCC)cc1 (stereo not drawn) [TRG 2411-74]	–
130	1050	CCCCNc1ccc(C2C(CNCCc3ccccc3)c3ccccc3CN2CCCCC(CN)NCCCC)cc1 (stereo not drawn) [TRG 2411-75]	–
